Legend:
Assay type in all cases: functional
BT-549 = assay: Cytotoxicity against human BT549 cells assessed as cell growth at 0.1 uM after 48 hrs by sulforhodamine B assay relative to control; details: BT-549, 48 h, read-out: Activity
MCF7 [1] = assay: Cytotoxicity against human MCF7 cells assessed as growth inhibition after 48 hrs by sulforhodamine B assay; details: MCF7, 48 h
A549 = assay: Cytotoxicity against human A549/ATCC cells assessed as cell growth at 10 uM after 48 hrs by sulforhodamine B assay relative to control; details: A549, 48 h, read-out: Activity
CCRF-CEM = assay: Cytotoxicity against human CCRF-CEM cells assessed as cell growth at 100 uM after 48 hrs by sulforhodamine B assay relative to control; details: read-out: Activity
T47D = assay: Cytotoxicity against human T47D cells assessed as growth inhibition after 48 hrs by sulforhodamine B assay
ACHN [2] = assay: Cytotoxicity against human ACHN cells assessed as growth inhibition after 48 hrs by sulforhodamine B assay
786-0 = assay: Cytotoxicity against human 786-0 cells assessed as cell growth at 100 uM after 48 hrs by sulforhodamine B assay relative to control; details: 786-0, 48 h, read-out: Activity
KM12 = assay: Cytotoxicity against human KM12 cells assessed as growth inhibition after 48 hrs by sulforhodamine B assay; details: KM12, 48 h
A498 = assay: Cytotoxicity against human A498 cells assessed as cell growth at 0.1 uM after 48 hrs by sulforhodamine B assay relative to control; details: A498, 48 h, read-out: Activity
HL-60(TB) = assay: Cytotoxicity against human HL-60(TB) cells assessed as growth inhibition after 48 hrs by sulforhodamine B assay; details: HL-60, 48 h
NCI-H23 = assay: Cytotoxicity against human NCI-H23 cells assessed as cell growth at 100 uM after 48 hrs by sulforhodamine B assay relative to control; details: NCI-H23, 48 h, read-out: Activity
Malme-3M [3] = assay: Cytotoxicity against human MALME-3M cells assessed as cell growth at 1 uM after 48 hrs by sulforhodamine B assay relative to control; details: read-out: Activity
RPMI-8226 = assay: Cytotoxicity against human RPMI8226 cells assessed as cell growth at 10 uM after 48 hrs by sulforhodamine B assay relative to control; details: RPMI-8226, 48 h, read-out: Activity
SW-620 [4] = assay: Cytotoxicity against human SW620 cells assessed as cell growth at 100 uM after 48 hrs by sulforhodamine B assay relative to control; details: SW-620, 48 h, read-out: Activity
ACHN [5] = assay: Cytotoxicity against human ACHN cells assessed as cell growth at 100 uM after 48 hrs by sulforhodamine B assay relative to control; details: read-out: Activity
Malme-3M [6] = assay: Cytotoxicity against human MALME-3M cells assessed as cell growth at 0.1 uM after 48 hrs by sulforhodamine B assay relative to control; details: read-out: Activity
UO-31 = assay: Cytotoxicity against human UO31 cells assessed as cell growth at 0.01 uM after 48 hrs by sulforhodamine B assay relative to control; details: UO-31, 48 h, read-out: Activity
UACC-257 = assay: Cytotoxicity against human UACC257 cells assessed as cell growth at 1 uM after 48 hrs by sulforhodamine B assay relative to control; details: UACC-257, 48 h, read-out: Activity
UACC-62 = assay: Cytotoxicity against human UACC62 cells assessed as cell growth at 1 uM after 48 hrs by sulforhodamine B assay relative to control; details: UACC-62, 48 h, read-out: Activity
NCI/ADR-RES [7] = assay: Cytotoxicity against human NCI/ADR-RES cells assessed as cell growth at 0.01 uM after 48 hrs by sulforhodamine B assay relative to control; details: read-out: Activity
MDA-MB-435 = assay: Cytotoxicity against human MDA-MB-435 cells assessed as cell growth at 100 uM after 48 hrs by sulforhodamine B assay relative to control; details: MDA-MB-435, 48 h, read-out: Activity
SK-OV-3 [8] = assay: Cytotoxicity against human SKOV3 cells assessed as cell growth at 1 uM after 48 hrs by sulforhodamine B assay relative to control; details: SK-OV-3, 48 h, read-out: Activity
K562 = assay: Cytotoxicity against human K562 cells assessed as cell growth at 10 uM after 48 hrs by sulforhodamine B assay relative to control; details: K562, 48 h, read-out: Activity
HT-29 = assay: Cytotoxicity against human HT-29 cells assessed as cell growth at 100 uM after 48 hrs by sulforhodamine B assay relative to control; details: HT-29, 48 h, read-out: Activity
MDA-MB-468 = assay: Cytotoxicity against human MDA-MB-468 cells assessed as cell growth at 1 uM after 48 hrs by sulforhodamine B assay relative to control; details: MDA-MB-468, 48 h, read-out: Activity
RXF 393 = assay: Cytotoxicity against human RXF393 cells assessed as cell growth at 0.01 uM after 48 hrs by sulforhodamine B assay relative to control; details: RXF 393, 48 h, read-out: Activity
SK-OV-3 [9] = assay: Cytotoxicity against human SKOV3 cells assessed as cell growth at 10 uM after 48 hrs by sulforhodamine B assay relative to control; details: SK-OV-3, 48 h, read-out: Activity
SR = assay: Cytotoxicity against human SR cells assessed as cell growth at 0.01 uM after 48 hrs by sulforhodamine B assay relative to control; details: read-out: Activity
SW-620 [10] = assay: Cytotoxicity against human SW620 cells assessed as cell growth at 0.1 uM after 48 hrs by sulforhodamine B assay relative to control; details: SW-620, 48 h, read-out: Activity
NCI/ADR-RES [11] = assay: Cytotoxicity against human NCI/ADR-RES cells assessed as cell growth at 100 uM after 48 hrs by sulforhodamine B assay relative to control; details: read-out: Activity
NCI-H460 = assay: Cytotoxicity against human NCI-H460 cells assessed as cell growth at 0.01 uM after 48 hrs by sulforhodamine B assay relative to control; details: NCI-H460, 48 h, read-out: Activity
SW-620 [12] = assay: Cytotoxicity against human SW620 cells assessed as cell growth at 10 uM after 48 hrs by sulforhodamine B assay relative to control; details: SW-620, 48 h, read-out: Activity
MCF7 [13] = assay: Cytotoxicity against human MCF7 cells assessed as cell growth at 10 uM after 48 hrs by sulforhodamine B assay relative to control; details: MCF7, 48 h, read-out: Activity
SNB-75 = assay: Cytotoxicity against human SNB75 cells assessed as growth inhibition after 48 hrs by sulforhodamine B assay; details: SNB-75, 48 h
PC-3 = assay: Cytotoxicity against human PC3 cells assessed as growth inhibition after 48 hrs by sulforhodamine B assay; details: PC-3, 48 h
SN12C = assay: Cytotoxicity against human SN12C cells assessed as growth inhibition after 48 hrs by sulforhodamine B assay

COc1cc2c(cc1OC)C(=O)/C(=C/c1cc(-c3ccc4c(c3)OCO4)n[nH]1)C2
growth at 0.1 µM (BT-549): 91% | GI50 (MCF7 [1]): 0.33 µM | LC50 (MCF7 [1]): 4.52 µM | TGI (MCF7 [1]): 1.42 µM | growth at 10 µM (A549): -30% | growth at 100 µM (CCRF-CEM): -38% | GI50 (T47D): 1.31 µM | LC50 (T47D): 5.62 µM | TGI (T47D): 2.72 µM | GI50 (ACHN [2]): 1.73 µM | LC50 (ACHN [2]): 6.04 µM | TGI (ACHN [2]): 3.23 µM | growth at 100 µM (786-0): -93% | GI50 (KM12): 1.29 µM | LC50 (KM12): 5.75 µM | TGI (KM12): 2.73 µM | growth at 0.1 µM (A498): 80% | GI50 (HL-60(TB)): 2.07 µM | LC50 (HL-60(TB)): > 100 µM | TGI (HL-60(TB)): 5.59 µM | growth at 100 µM (NCI-H23): -78% | growth at 1 µM (Malme-3M [3]): 88% | growth at 10 µM (RPMI-8226): -59% | growth at 100 µM (SW-620 [4]): -71% | growth at 100 µM (ACHN [5]): -89% | growth at 0.1 µM (Malme-3M [6]): 84% | growth at 0.01 µM (UO-31): 86% | growth at 1 µM (UACC-257): 94% | growth at 1 µM (UACC-62): 89% | growth at 0.01 µM (NCI/ADR-RES [7]): 101% | growth at 100 µM (MDA-MB-435): -95% | growth at 1 µM (SK-OV-3 [8]): 109% | growth at 10 µM (K562): 2% | growth at 100 µM (HT-29): -70% | growth at 1 µM (MDA-MB-468): 54% | growth at 0.01 µM (RXF 393): 97% | growth at 10 µM (SK-OV-3 [9]): -18% | growth at 0.01 µM (SR): 97% | growth at 0.1 µM (SW-620 [10]): 99% | growth at 100 µM (NCI/ADR-RES [11]): -40% | growth at 0.01 µM (NCI-H460): 99% | growth at 10 µM (SW-620 [12]): -56% | growth at 10 µM (MCF7 [13]): -84% | GI50 (SNB-75): 1.65 µM | LC50 (concentration killing 50% of cells) (SNB-75): 5.51 µM | TGI (SNB-75): 3.02 µM | GI50 (PC-3): 1.29 µM | LC50 (PC-3): 6.6 µM | TGI (PC-3): 2.92 µM | GI50 (SN12C): 1.59 µM | LC50 (SN12C): 5.62 µM | TGI (SN12C): 2.99 µM

COc1cc(C(=O)/C=C/c2cc(-c3ccc4c(c3)OCO4)n[nH]2)cc(OC)c1OC
growth at 0.1 µM (BT-549): 97% | GI50 (MCF7 [1]): 1.06 µM | LC50 (MCF7 [1]): 7.88 µM | TGI (MCF7 [1]): 2.88 µM | growth at 10 µM (A549): -22% | growth at 100 µM (CCRF-CEM): -20% | GI50 (T47D): 1.51 µM | LC50 (T47D): 19.9 µM | TGI (T47D): 4.63 µM | GI50 (ACHN [2]): 2.2 µM | LC50 (ACHN [2]): 18.8 µM | TGI (ACHN [2]): 4.95 µM | growth at 100 µM (786-0): -83% | GI50 (KM12): 1.86 µM | LC50 (KM12): 7.97 µM | TGI (KM12): 3.85 µM | growth at 0.1 µM (A498): 90% | GI50 (HL-60(TB)): 2.17 µM | LC50 (HL-60(TB)): > 100 µM | TGI (HL-60(TB)): 6.49 µM | growth at 100 µM (NCI-H23): -83% | growth at 1 µM (Malme-3M [3]): 83% | growth at 10 µM (RPMI-8226): -48% | growth at 100 µM (SW-620 [4]): -65% | growth at 100 µM (ACHN [5]): -68% | growth at 0.1 µM (Malme-3M [6]): 83% | growth at 0.01 µM (UO-31): 85% | growth at 1 µM (UACC-257): 96% | growth at 1 µM (UACC-62): 89% | growth at 0.01 µM (NCI/ADR-RES [7]): 95% | growth at 100 µM (MDA-MB-435): -88% | growth at 1 µM (SK-OV-3 [8]): 107% | growth at 10 µM (K562): 3% | growth at 100 µM (HT-29): -45% | growth at 1 µM (MDA-MB-468): 68% | growth at 0.01 µM (RXF 393): 93% | growth at 10 µM (SK-OV-3 [9]): 19% | growth at 0.01 µM (SR): 97% | growth at 0.1 µM (SW-620 [10]): 95% | growth at 100 µM (NCI/ADR-RES [11]): -19% | growth at 0.01 µM (NCI-H460): 99% | growth at 10 µM (SW-620 [12]): -57% | growth at 10 µM (MCF7 [13]): -62% | GI50 (SNB-75): 2.4 µM | LC50 (concentration killing 50% of cells) (SNB-75): 26.1 µM | TGI (SNB-75): 7.27 µM | GI50 (PC-3): 1.51 µM | LC50 (PC-3): 12.4 µM | TGI (PC-3): 4.02 µM | GI50 (SN12C): 2.26 µM | LC50 (SN12C): 23.4 µM | TGI (SN12C): 6.28 µM

Reference: ChEMBL document CHEMBL4138123, “Design, synthesis and biological evaluation of novel pyrazolochalcones as potential modulators of PI3K/Akt/mTOR pathway and inducers of apoptosis in breast cancer cells” (Eur J Med Chem, 2017)
